Results on 1 substance are retold here after US20100279409A1, “METHOD FOR MODIFYING CELLUAR IMMUNE RESONSE BY MODULATING ACTIVIN ACTIVITY” (priority 2007, published 2010).

For data set [1], the system named is Human NK cells. Kind of data set: Intracellular cytokine staining of IFN-γ in NK cells. The class given is cell-based. To be noted: 16 hours, BFA 1 μg/ml. The procedure:
In these experiments 1×10^5 highly purified human NK cells were cultured as above, but were cultured with Poly I:C (10 μg/ml), or LPS (100 ng/ml), with or without 10, 50, or 100 ng/ml of recombinant human activin-A. In some cases, the known compound “SB431542,” which blocks activin-A binding to receptors was added. IFN-γ was then measured via ELISA, or by intracellular cytokine staining after 16 hours of culture, via addition of 1 μg/ml BFA, to prevent cytokine release.
In additional follow up experiments, the NK cells were stimulated with IL-2 or the combination of IL-2 and IL-12, plus poly I:C or LPS, for 16 hours, in the presence of 1 μg/ml of BFA, before a standard ICS assay was carried out via flow cytometry.

Data set [2] deals with NK cells. Kind of data set: qRT-PCR of NK cell gene expression. The class given is cell-based, human. To be noted: 16 hours. The procedure: In a second set of experiments, 5×10^5 purified NK cells were cultured as described herein, in 24 well-plates and were then collected, and lysed after 16 hours of culture.
The lysates were treated to extract the mRNA, which was then subjected to qRT-PCR to determine expression of each of T-bet (a transcription factor), IFN-γ, perforin, granzyme A, and granzyme B.

Another data set has as its system C57/B6 mice. The class given is in vivo, mouse. The settings on record: 100 ng activin-A subcutaneously, live influenza virus intraperitoneally, day 7.
Data set [3] deals with NK cells. Kind of data set: Flow cytometry of CD25 and CD56 on NK cells. The class given is cell-based, human. The protocol:
As above, 1×10^5 purified NK cells were cultured in 96 well-plates in media that had been supplemented with IL-2 and IL-12, either with or without the addition of TLR ligands, in the presence of activin-A (100 ng/ml).
After 24 hours, […] were collected, and stained with anti-CD25 antibodies, with expression being determined by flow cytometry.
(In flow cytometry, cells or beads pass a laser one at a time.)

For data set [4], the system named is Human NK cells. Kind of data set: CFSE division assay of NK cells. The class given is cell-based. The settings on record: 5 days, activin-A 100 ng/ml. The protocol: In these experiments, 1×10^5 highly purified human NK cells were labeled with CFSE, and cultured for 5 days in medium supplemented with 20 U/ml IL-2 and 10 ng/ml IL-12, either with or without Poly I:C or LPS, either with or without 100 ng/ml of human recombinant activin-A. Cellular division was assessed by determining loss of CFSE intensity using known, flow cytometric methods.

Data set [5] has as its system Human NK cells. As to the kind of experiment: Western blot for Smad 2/3 in NK cells. The class given is cell-based. The settings on record: ex vivo purified NK cells, 50 ng/ml activin-A, 4 hours. The protocol:
Human NK cells were highly purified, following standard methods; and were either lysed immediately or cultured for 20 hours in medium that had been supplemented with 20 U/ml IL-2, either with or without 10 ng/ml of IL-12, or with or without the toll like receptor 3 ligand Poly I:C, 5×10^5, lysed immediately, and then assayed for ALK-4 (an activin type I receptor), and RITA (an activin type II receptor), via qRT-PCR. In parallel, 1×10^5 highly purified NK cells were cultured in medium supplemented with 20 U/ml IL-2, with or without 50 ng/ml of recombinant human activin-A. Cells were harvested after 4 hours, and Western blotting was carried out for Smad 2/3 and β-actin.
(In general: Immunoblotting shows a protein as a band on a membrane.)

A further data set has as its system CD8+ T cells. As to the kind of experiment: Purified CD8+ T cell activation and expansion with recombinant activin-A. To be noted: anti-CD3/CD28 beads, activin-A 0, 10, 100 ng/ml, 24 or 72 hours. The class given is cell-based, human. The procedure:
To test this, CD8^+ T cells were purified and labeled with carboxy fluorescein succinimidy/ester (“CFSE” hereafter). These cells were cultured in wells, at 1×10^5 cells/well, in standard medium supplemented with 20 U/ml of IL-2, either with or without anti-CD3/CD28 bead stimulation, in the presence of increasing doses of commercially available, recombinant activin-A (0, 10, and 100 ng/ml), for 24 or 72 hours. Cell division was assessed over time by flow cytometry and IFN-γ production via a standard ELISA.

The subject of data set [6] is NK cells (target cells K562 or Jurkat cells). Kind of data set: NK cell killing of calcein-labeled target cells. The class given is cell-based, human. The settings on record: 100 ng/ml, 3 days culture, K562 or Jurkat targets, 4 hours. The protocol:
1×10^6 purified NK cells were cultured in 24 well-plates, either with a high dose of IL-2 (100 U/ml), or a combination of 20 U/ml of IL-2 and IL-12. The culturing took place in the absence of either of activin-A or TGF-β or 100 ng/ml of one of them. The culture continued for 3 days.
After the 3 days of culture, the NK cells were combined with target cells K562 or Jurkat cells, at effector (NK cells): target (K562 or Jurkat cells) ratios of 5:1, 2:1, and 0.1:1. The target cells had been labeled with calcein previously. The total number of labeled target cells was 2×10^4, and the mixture was incubated for 4 hours. The efficiency of killing was determined by measuring calcein dye release via spectrometry.

The test system of data set [7] is NK cells. Kind of data set: NK cell viability by caspase and PI staining. The class given is cell-based, human. To be noted: 24 hours. The procedure: With respect to testing viability, 1×10^5 purified NK cells were cultured as described supra, in 96 well-plates. After 24 hours of culture, cells were stained with antibodies to polycaspase, caspase 3/7, caspase 8 and PI.

Turning to activin-A, the “number of IFN-γ producing cells” value in the data set with Human NK cells [1] was “not due to a decrease in the number of IFN-γ producing cells”. For the same substance, the “number of IFN-γ producing cells” value in the data set with Human NK cells [1] (listed as Activin-A) is reported as “did not effect these populations”. In the data set with NK cells [2], the “IFN-γ mRNA expression” value is “inhibited expression of T-bet and IFN-γ significantly”; the “T-bet mRNA expression” value was “inhibited expression of T-bet and IFN-γ significantly”; the “perforin, granzyme A and granzyme B mRNA expression” value is on record as “had no effect”. Moreover, in the data set with C57/B6 mice, the “peptide specific CD8+ IFN-γ+ T cell response” value is given as “suppressed”. Besides, in the data set with NK cells [3] (Example 16), the “downregulation of CD56” value is recorded as “suppressed” and the “upregulation of CD25” value is recorded as “suppressed”. Besides, in the data set on NK cells [3] (IL-2 and IL-12 with or without TLR ligands, activin-A 100 ng/ml, 24 hours), the CD25 expression entry was “significantly suppressed”. Besides, the “division and proliferation of NK cells” value with Human NK cells [4] (IL-2, IL-12, LPS) is recorded as “very strongly suppressed”. In addition, the “division and proliferation of NK cells” value in the data set with Human NK cells [4] (IL-2, IL-12, Poly I:C) is “very strongly suppressed”. Further, the “intracellular Smad 2/3 levels” value in the data set on Human NK cells [5] is given as “enhanced intracellular Smad 2/3 levels”. In the data set with CD8+ T cells, the “CD8+ T cell ability to generate IFN-γ” value is “did not regulate” and the “CD8+ T cell division” value is recorded as “did not regulate”. In addition, the “killing ability of NK cells” value in data set [6] was “had no impact whatsoever”. Besides, in the data set with NK cells [7], the “apoptosis (polycaspase, caspase 3/7, caspase 8, PI staining)” value is recorded as “no indication of apoptosis”.
